system: RS4;11 cells; assay: RS4;11 cell viability assay (CellTiter Glo); assay type: cell-based, human; details: Homo sapiens, RS4-11, 48 h, 50,000 cells per well, 10% human serum, 48 hours; read-out: RS4; 11 EC50 Values;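 further: acute lymphoblastic leukemia line RS4,11, EC50 derived from percentage of viable cells after treatment relative to untreated controls, cell killing taken as a measure of Bcl-2 inhibition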
Experimental: The acute lymphoblastic leukemia (ALL) cell line RS4;11 was used as the primary human cell line to assess the cellular activity of Bcl-2 selective agents in vitro and their efficacy in vivo.
Cell cytotoxicity EC50 values were assessed using CellTiter Glo (Promega) according to the manufacturer's recommendations. The EC50 values were determined as a percentage of viable cells following treatment compared to the untreated control cells.

COc1cccc(CNc2ccc(S(=O)(=O)NC(=O)c3ccc(N4CCN(CC5=C(c6ccc(Cl)cc6)CC(C)(C)CC5)CC4)cc3Oc3cnc4[nH]ccc4c3)cc2[N+](=O)[O-])c1 [Example 176, 4-(4-{[2-(4-chlorophenyl)-4,4-dimethylcyclohex-1-en-1-yl]methyl}piperazin-1-yl)-N-({4-[(3-methoxybenzyl)amino]-3-nitrophenyl}sulfonyl)-2-(1H-pyrrolo[2,3-b]pyridin-5-yloxy)benzamide] and CC1(C)CCC(CN2CCN(c3ccc(C(=O)NS(=O)(=O)c4ccc(NCc5ccc(OC(F)F)cc5)c([N+](=O)[O-])c4)c(Oc4cnc5[nH]ccc5c4)c3)CC2)=C(c2ccc(Cl)cc2)C1 [Example 177, 4-(4-{[2-(4-chlorophenyl)-4,4-dimethylcyclohex-1-en-1-yl]methyl}piperazin-1-yl)-N-[(4-{[4-(difluoromethoxy)benzyl]amino}-3-nitrophenyl)sulfonyl]-2-(1H-pyrrolo[2,3-b]pyridin-5-yloxy)benzamide] are within 1.5-fold of each other in EC50: 134 nM for the first, 159 nM for the second.

First: CC1(C)CCC(CN2CCN(c3ccc(C(=O)NS(=O)(=O)c4ccc(NC5CCC6(CC5)OCCO6)c([N+](=O)[O-])c4)c(Oc4cnc5[nH]ccc5c4)c3)CC2)=C(c2ccc(Cl)cc2)C1 [Example 178, 4-(4-{[2-(4-chlorophenyl)-4,4-dimethylcyclohex-1-en-1-yl]methyl}piperazin-1-yl)-N-{[4-(1,4-dioxaspiro[4.5]dec-8-ylamino)-3-nitrophenyl]sulfonyl}-2-(1H-pyrrolo[2,3-b]pyridin-5-yloxy)benzamide]
Second: CC(=O)N[C@H]1CC[C@H](Nc2ccc(S(=O)(=O)NC(=O)c3ccc(N4CCN(CC5=C(c6ccc(Cl)cc6)CC(C)(C)CC5)CC4)cc3Oc3cnc4[nH]ccc4c3)cc2[N+](=O)[O-])CC1 [Example 179, Trans-N-[(4-{[4-(acetylamino)cyclohexyl]amino}-3-nitrophenyl)sulfonyl]-4-(4-{[2-(4-chlorophenyl)-4,4-dimethylcyclohex-1-en-1-yl]methyl}piperazin-1-yl)-2-(1H-pyrrolo[2,3-b]pyridin-5-yloxy)benzamide]
The EC50 of the first is 4.7-fold higher: 202 nM for the first, 42.7 nM for the second. The second is the more potent here.

Going from CC1(C)CCC(CN2CCN(c3ccc(C(=O)NS(=O)(=O)c4ccc(N[C@@H]5CCN(CC(F)F)C5)c([N+](=O)[O-])c4)c(Oc4cnc5[nH]ccc5c4)c3)CC2)=C(c2ccc(Cl)cc2)C1 [Example 180, 4-(4-{[2-(4-chlorophenyl)-4,4-dimethylcyclohex-1-en-1-yl]methyl}piperazin-1-yl)-N-[(4-{[(3R)-1-(2,2-difluoroethyl)pyrrolidin-3-yl]amino}-3-nitrophenyl)sulfonyl]-2-(1H-pyrrolo[2,3-b]pyridin-5-yloxy)benzamide] to CC1(C)CCC(CN2CCN(c3ccc(C(=O)NS(=O)(=O)c4ccc(N[C@H]5CCN(CC(F)F)C5)c([N+](=O)[O-])c4)c(Oc4cnc5[nH]ccc5c4)c3)CC2)=C(c2ccc(Cl)cc2)C1 [Example 182, 4-(4-{[2-(4-chlorophenyl)-4,4-dimethylcyclohex-1-en-1-yl]methyl}piperazin-1-yl)-N-[(4-{[(3S)-1-(2,2-difluoroethyl)pyrrolidin-3-yl]amino}-3-nitrophenyl)sulfonyl]-2-(1H-pyrrolo[2,3-b]pyridin-5-yloxy)benzamide], the EC50 rises from 11.8 nM to 123 nM (10-fold). The first is the more potent here.

CC1(C)CCC(CN2CCN(c3ccc(C(=O)NS(=O)(=O)c4ccc(N[C@H]5CCN(CCF)C5)c([N+](=O)[O-])c4)c(Oc4cnc5[nH]ccc5c4)c3)CC2)=C(c2ccc(Cl)cc2)C1 [Example 181, 4-(4-{[2-(4-chlorophenyl)-4,4-dimethylcyclohex-1-en-1-yl]methyl}piperazin-1-yl)-N-[(4-{[(3S)-1-(2-fluoroethyl)pyrrolidin-3-yl]amino}-3-nitrophenyl)sulfonyl]-2-(1H-pyrrolo[2,3-b]pyridin-5-yloxy)benzamide] was tested, and the EC50 was 106 nM.

— patent publication US20240043404A1 (AbbVie Inc., priority 2009, published 2024)
